Values belong to the compound of their own block, whether it stands above or below them.
How the values were obtained:
Assay in all cases: Caliper, Mobility shift assay off-chip
CDK3 CCNE1 (human) = CDK3 CCNE1 (human) (UniProt P24864+Q00526)
NUAK1 (human) = NUAK1 (human) (UniProt O60285)
STK24 (human) = STK24 (human) (UniProt Q9Y6E0)
PRKG2 (human) = PRKG2 (human) (UniProt Q13237)
SIK1 (human) = SIK1 (human) (UniProt P57059)
PRKD2 (human) = PRKD2 (human) (UniProt Q9BZL6)
SRPK3 (human) = SRPK3 (human) (UniProt Q9UPE1)
ABL2 (human) = ABL2 (human) (UniProt P42684)
CSNK1G1 (human) = CSNK1G1 (human) (UniProt Q9HCP0)
SRPK2 (human) = SRPK2 (human) (UniProt P78362)
RPS6KA6 KD1 KD2 (human) = RPS6KA6 KD1 KD2 (human) (UniProt Q9UK32)
AKT2 (human) = AKT2 (human) (UniProt P31751)
CDK1 CCNB1 (human) = CDK1 CCNB1 (human) (UniProt P06493+P14635)
STK4 (human) = STK4 (human) (UniProt Q13043)
Chain of STK4 (human) (Q13043 whole entry, looked up): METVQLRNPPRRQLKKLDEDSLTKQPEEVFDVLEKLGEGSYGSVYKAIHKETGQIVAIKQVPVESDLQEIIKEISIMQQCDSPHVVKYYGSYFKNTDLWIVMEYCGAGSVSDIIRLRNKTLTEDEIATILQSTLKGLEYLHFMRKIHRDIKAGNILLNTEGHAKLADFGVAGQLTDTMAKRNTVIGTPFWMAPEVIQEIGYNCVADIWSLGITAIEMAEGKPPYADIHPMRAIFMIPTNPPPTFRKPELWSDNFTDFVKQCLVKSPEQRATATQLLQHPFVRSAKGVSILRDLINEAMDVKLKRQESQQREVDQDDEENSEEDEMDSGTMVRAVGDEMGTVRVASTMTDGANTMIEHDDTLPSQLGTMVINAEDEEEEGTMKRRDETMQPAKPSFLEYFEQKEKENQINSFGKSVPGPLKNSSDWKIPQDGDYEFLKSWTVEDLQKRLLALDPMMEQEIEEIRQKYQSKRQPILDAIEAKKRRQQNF

CLK3 (human) = CLK3 (human) (UniProt P49761)
NEK3 (human) = NEK3 (human) (UniProt P51956)
CDK5 CDK5R1 p35 (human) = CDK5 CDK5R1 p35 (human) (UniProt Q00535+Q15078)
TSSK2 (human) = TSSK2 (human) (UniProt Q96PF2)
AXL (human) = AXL (human) (UniProt P30530)
EPHB4 (human) = EPHB4 (human) (UniProt P54760)
PRKCB1 (human) = PRKCB1 (human) (UniProt P05771)
GSK3B (human) = GSK3B (human) (UniProt P49841)
JAK2 JH1 JH2 (human) = JAK2 JH1 JH2 (human) (UniProt O60674)
STK3 (human) = STK3 (human) (UniProt Q13188)
RPS6KA4 KD1 KD2 (human) = RPS6KA4 KD1 KD2 (human) (UniProt O75676)
SGK3 (human) = SGK3 (human) (UniProt Q96BR1)
Chain of SGK3 (human) (Q96BR1 whole entry, looked up): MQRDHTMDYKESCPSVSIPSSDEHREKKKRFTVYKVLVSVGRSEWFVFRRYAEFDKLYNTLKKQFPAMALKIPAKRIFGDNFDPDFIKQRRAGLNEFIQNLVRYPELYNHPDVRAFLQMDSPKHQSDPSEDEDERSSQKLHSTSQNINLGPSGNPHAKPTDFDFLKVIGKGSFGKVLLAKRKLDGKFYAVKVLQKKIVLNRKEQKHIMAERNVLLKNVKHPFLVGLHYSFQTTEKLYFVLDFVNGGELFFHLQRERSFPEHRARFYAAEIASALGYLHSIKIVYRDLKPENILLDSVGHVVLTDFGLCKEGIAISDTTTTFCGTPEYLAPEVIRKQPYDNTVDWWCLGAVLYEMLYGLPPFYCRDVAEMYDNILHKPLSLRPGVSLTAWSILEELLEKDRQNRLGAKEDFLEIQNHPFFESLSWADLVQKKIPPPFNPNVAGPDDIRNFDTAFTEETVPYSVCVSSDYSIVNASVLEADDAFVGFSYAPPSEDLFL

DDR2 (human) = DDR2 (human) (UniProt Q16832)
CDK5 CDK5R1 p25 (human) = CDK5 CDK5R1 p25 (human) (UniProt Q15078+Q00535)
FLT1 (human) = FLT1 (human) (UniProt P17948)
Chain of FLT1 (human) (P17948 whole entry, looked up): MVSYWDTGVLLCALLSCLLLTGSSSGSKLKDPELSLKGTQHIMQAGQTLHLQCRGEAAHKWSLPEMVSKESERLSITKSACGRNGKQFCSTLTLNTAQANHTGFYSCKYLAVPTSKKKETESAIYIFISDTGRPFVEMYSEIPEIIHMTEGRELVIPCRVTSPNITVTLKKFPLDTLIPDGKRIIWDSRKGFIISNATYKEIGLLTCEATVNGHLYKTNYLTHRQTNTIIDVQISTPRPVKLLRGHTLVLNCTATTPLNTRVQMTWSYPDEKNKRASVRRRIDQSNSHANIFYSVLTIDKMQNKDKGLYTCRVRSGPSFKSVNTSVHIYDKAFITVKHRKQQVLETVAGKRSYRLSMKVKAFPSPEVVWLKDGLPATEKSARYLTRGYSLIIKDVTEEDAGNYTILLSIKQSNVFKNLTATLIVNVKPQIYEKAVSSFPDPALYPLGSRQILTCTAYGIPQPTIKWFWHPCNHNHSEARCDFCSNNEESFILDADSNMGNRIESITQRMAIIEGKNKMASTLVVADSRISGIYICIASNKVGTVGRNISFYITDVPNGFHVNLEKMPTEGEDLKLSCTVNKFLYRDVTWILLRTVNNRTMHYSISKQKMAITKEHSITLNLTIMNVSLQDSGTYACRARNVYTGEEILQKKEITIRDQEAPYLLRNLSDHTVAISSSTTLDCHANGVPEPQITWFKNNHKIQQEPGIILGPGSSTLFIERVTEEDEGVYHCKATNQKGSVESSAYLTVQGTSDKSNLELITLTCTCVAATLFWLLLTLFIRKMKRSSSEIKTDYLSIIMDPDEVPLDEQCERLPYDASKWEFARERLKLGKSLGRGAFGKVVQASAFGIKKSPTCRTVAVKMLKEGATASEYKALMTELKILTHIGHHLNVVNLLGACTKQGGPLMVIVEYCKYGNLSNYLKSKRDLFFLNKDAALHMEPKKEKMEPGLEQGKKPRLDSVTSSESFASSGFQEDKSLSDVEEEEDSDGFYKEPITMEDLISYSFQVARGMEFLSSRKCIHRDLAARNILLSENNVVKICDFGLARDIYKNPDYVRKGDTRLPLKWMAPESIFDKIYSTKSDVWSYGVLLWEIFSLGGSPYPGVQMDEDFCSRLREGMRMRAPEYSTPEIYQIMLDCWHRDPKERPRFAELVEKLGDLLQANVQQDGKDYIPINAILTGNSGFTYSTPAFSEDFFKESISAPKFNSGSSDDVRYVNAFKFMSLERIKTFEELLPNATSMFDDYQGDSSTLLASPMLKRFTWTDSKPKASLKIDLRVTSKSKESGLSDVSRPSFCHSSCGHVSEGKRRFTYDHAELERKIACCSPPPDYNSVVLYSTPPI

CDK9 CCNT1 (human) = CDK9 CCNT1 (human) (UniProt O60563+P50750)
PASK (human) = PASK (human) (UniProt Q96RG2)
HIPK2 (human) = HIPK2 (human) (UniProt Q9H2X6)
EEF2K (human) = EEF2K (human) (UniProt O00418)
[1] = test system: FGFR2 (human), P21802 [N549H]
CSNK1G3 (human) = CSNK1G3 (human) (UniProt Q9Y6M4)
CDK7 CCNH MNAT1 (human) = CDK7 CCNH MNAT1 (human) (UniProt P50613+P51948+P51946)
PRKCE (human) = PRKCE (human) (UniProt Q02156)
DAPK3 (human) = DAPK3 (human) (UniProt O43293)
RET (human) = RET (human) (UniProt P07949)
FYN (human) = FYN (human) (UniProt P06241)

Chain of PRKD2 (human) (Q9BZL6 whole entry, looked up): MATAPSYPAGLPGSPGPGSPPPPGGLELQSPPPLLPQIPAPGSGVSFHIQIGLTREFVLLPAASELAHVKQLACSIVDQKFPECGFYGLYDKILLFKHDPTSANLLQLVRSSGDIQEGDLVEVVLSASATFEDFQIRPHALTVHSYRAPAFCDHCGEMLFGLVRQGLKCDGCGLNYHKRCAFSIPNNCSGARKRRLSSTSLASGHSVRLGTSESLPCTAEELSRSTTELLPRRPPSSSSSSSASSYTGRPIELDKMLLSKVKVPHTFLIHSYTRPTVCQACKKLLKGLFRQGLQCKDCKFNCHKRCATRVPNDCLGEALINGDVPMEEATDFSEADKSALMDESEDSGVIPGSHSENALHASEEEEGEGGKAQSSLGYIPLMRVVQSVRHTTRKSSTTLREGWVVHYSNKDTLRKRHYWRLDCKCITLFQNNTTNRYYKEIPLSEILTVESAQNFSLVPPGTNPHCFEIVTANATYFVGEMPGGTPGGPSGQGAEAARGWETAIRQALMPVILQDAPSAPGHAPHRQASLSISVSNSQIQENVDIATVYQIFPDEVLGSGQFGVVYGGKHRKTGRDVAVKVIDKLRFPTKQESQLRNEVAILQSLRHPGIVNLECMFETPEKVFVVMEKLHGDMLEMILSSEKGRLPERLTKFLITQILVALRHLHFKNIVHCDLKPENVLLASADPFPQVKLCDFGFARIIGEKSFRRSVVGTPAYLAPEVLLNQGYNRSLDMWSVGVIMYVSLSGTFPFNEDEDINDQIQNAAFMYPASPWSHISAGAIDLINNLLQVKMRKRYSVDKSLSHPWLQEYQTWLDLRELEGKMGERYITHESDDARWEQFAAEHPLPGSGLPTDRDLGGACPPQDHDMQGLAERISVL
Chain of SIK1 (human) (P57059 whole entry, looked up): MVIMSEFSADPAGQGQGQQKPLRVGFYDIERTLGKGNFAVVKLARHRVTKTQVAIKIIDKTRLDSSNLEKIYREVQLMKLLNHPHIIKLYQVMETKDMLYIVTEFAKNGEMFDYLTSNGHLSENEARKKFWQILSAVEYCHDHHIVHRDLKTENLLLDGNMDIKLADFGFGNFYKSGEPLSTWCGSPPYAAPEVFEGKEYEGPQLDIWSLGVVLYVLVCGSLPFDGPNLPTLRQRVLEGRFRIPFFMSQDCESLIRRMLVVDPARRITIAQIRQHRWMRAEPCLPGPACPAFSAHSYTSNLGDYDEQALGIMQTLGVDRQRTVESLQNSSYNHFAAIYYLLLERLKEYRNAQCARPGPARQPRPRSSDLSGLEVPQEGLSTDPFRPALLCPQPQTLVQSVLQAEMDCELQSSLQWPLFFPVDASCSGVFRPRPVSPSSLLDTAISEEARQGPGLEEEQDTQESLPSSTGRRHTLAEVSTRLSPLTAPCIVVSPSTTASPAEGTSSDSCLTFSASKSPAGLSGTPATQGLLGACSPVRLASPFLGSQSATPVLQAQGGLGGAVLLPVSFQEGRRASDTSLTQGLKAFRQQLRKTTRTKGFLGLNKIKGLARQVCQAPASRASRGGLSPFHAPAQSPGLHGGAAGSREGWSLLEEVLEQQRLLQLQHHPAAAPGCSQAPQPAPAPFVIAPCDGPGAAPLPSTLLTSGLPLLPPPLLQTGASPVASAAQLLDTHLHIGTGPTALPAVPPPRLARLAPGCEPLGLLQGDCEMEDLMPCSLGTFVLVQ
Chain of PRKG2 (human) (Q13237 whole entry, looked up): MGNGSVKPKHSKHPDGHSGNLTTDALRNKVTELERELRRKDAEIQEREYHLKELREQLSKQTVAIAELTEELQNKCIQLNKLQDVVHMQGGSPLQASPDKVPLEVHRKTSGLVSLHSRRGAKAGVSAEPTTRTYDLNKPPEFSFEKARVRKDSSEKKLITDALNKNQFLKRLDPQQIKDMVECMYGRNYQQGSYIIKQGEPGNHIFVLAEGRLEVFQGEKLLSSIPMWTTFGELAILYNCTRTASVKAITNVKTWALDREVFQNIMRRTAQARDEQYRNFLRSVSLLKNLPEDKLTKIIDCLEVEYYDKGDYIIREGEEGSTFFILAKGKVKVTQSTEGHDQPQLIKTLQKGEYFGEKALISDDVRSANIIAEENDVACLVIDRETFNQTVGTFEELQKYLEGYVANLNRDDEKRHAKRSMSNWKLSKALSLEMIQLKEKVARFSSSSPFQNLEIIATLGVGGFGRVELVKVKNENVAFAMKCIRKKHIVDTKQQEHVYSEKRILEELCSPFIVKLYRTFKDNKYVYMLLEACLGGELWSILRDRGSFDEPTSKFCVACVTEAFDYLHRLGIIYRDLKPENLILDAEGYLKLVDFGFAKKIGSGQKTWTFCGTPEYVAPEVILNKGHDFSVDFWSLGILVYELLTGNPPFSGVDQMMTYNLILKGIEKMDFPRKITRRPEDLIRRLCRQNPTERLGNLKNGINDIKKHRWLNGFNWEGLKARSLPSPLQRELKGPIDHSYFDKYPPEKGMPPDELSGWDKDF

residual activity (CDK3 CCNE1 (human); compound 10.0 µM): 84%
residual activity (NUAK1 (human); compound 10.0 µM): 66%
residual activity (STK24 (human); compound 10.0 µM): 106%
residual activity (PRKG2 (human); compound 10.0 µM): 34%
residual activity (SIK1 (human); compound 10.0 µM): 25%
residual activity (PRKD2 (human); compound 10.0 µM): 15%
residual activity (SRPK3 (human); compound 10.0 µM): 58%
residual activity (ABL2 (human); compound 10.0 µM): 78%
residual activity (CSNK1G1 (human); compound 10.0 µM): 51%
residual activity (SRPK2 (human); compound 10.0 µM): 96%
residual activity (RPS6KA6 KD1 KD2 (human); compound 10.0 µM): 15%
residual activity (AKT2 (human); compound 10.0 µM): 15%
residual activity (CDK1 CCNB1 (human); compound 10.0 µM): 90%
residual activity (STK4 (human); compound 10.0 µM): 40%
residual activity (CLK3 (human); compound 10.0 µM): 65%
residual activity (NEK3 (human); compound 10.0 µM): 88%
residual activity (CDK5 CDK5R1 p35 (human); compound 10.0 µM): 98%
residual activity (TSSK2 (human); compound 10.0 µM): 72%
residual activity (AXL (human); compound 10.0 µM): 3%
residual activity (EPHB4 (human); compound 10.0 µM): 83%
residual activity (PRKCB1 (human); compound 10.0 µM): 99%
residual activity (GSK3B (human); compound 10.0 µM): 118%
residual activity (JAK2 JH1 JH2 (human); compound 10.0 µM): 106%
residual activity (STK3 (human); compound 10.0 µM): 104%
residual activity (RPS6KA4 KD1 KD2 (human); compound 10.0 µM): 8%
residual activity (SGK3 (human); compound 10.0 µM): 12%
residual activity (DDR2 (human); compound 10.0 µM): 57%
residual activity (CDK5 CDK5R1 p25 (human); compound 10.0 µM): 82%
residual activity (FLT1 (human); compound 10.0 µM): 6%
residual activity (CDK9 CCNT1 (human); compound 10.0 µM): 126%
residual activity (PASK (human); compound 10.0 µM): 4%
residual activity (HIPK2 (human); compound 10.0 µM): 63%
residual activity (EEF2K (human); compound 10.0 µM): 93%
residual activity ([1]; compound 10.0 µM): 11%
residual activity (CSNK1G3 (human); compound 10.0 µM): 2%
residual activity (CDK7 CCNH MNAT1 (human); compound 10.0 µM): 73%
residual activity (PRKCE (human); compound 10.0 µM): 81%
residual activity (DAPK3 (human); compound 10.0 µM): 34%
residual activity (RET (human); compound 10.0 µM): 9%
residual activity (FYN (human); compound 10.0 µM): 114%
SMILES: COc1ccc(C#Cc2ccc3ncc4ncn(-c5ccc(CCN)cc5)c4c3c2)cc1

residual activity (CDK3 CCNE1 (human); compound 1.0 µM): 106%
residual activity (NUAK1 (human); compound 1.0 µM): 11%
residual activity (STK24 (human); compound 1.0 µM): 125%
residual activity (PRKG2 (human); compound 1.0 µM): 88%
residual activity (SIK1 (human); compound 1.0 µM): 23%
residual activity (PRKD2 (human); compound 1.0 µM): 96%
residual activity (SRPK3 (human); compound 1.0 µM): 115%
residual activity (ABL2 (human); compound 1.0 µM): 104%
residual activity (CSNK1G1 (human); compound 1.0 µM): 97%
residual activity (SRPK2 (human); compound 1.0 µM): 107%
residual activity (RPS6KA6 KD1 KD2 (human); compound 1.0 µM): 12%
residual activity (AKT2 (human); compound 1.0 µM): 90%
residual activity (CDK1 CCNB1 (human); compound 1.0 µM): 100%
residual activity (STK4 (human); compound 1.0 µM): 30%
residual activity (CLK3 (human); compound 1.0 µM): 108%
residual activity (NEK3 (human); compound 1.0 µM): 104%
residual activity (CDK5 CDK5R1 p35 (human); compound 1.0 µM): 122%
residual activity (TSSK2 (human); compound 1.0 µM): 106%
residual activity (AXL (human); compound 1.0 µM): 18%
residual activity (EPHB4 (human); compound 1.0 µM): 137%
residual activity (PRKCB1 (human); compound 1.0 µM): 94%
residual activity (GSK3B (human); compound 1.0 µM): 82%
residual activity (JAK2 JH1 JH2 (human); compound 1.0 µM): 106%
residual activity (STK3 (human); compound 1.0 µM): 60%
residual activity (RPS6KA4 KD1 KD2 (human); compound 1.0 µM): 61%
residual activity (SGK3 (human); compound 1.0 µM): 104%
residual activity (DDR2 (human); compound 1.0 µM): 101%
residual activity (CDK5 CDK5R1 p25 (human); compound 1.0 µM): 104%
residual activity (FLT1 (human); compound 1.0 µM): 28%
residual activity (CDK9 CCNT1 (human); compound 1.0 µM): 96%
residual activity (PASK (human); compound 1.0 µM): 109%
residual activity (HIPK2 (human); compound 1.0 µM): 104%
residual activity (EEF2K (human); compound 1.0 µM): 115%
residual activity ([1]; compound 1.0 µM): 23%
residual activity (CSNK1G3 (human); compound 1.0 µM): 113%
residual activity (CDK7 CCNH MNAT1 (human); compound 1.0 µM): 102%
residual activity (PRKCE (human); compound 1.0 µM): 106%
residual activity (DAPK3 (human); compound 1.0 µM): 57%
residual activity (RET (human); compound 1.0 µM): 1%
residual activity (FYN (human); compound 1.0 µM): 79%
SMILES: C[C@@H](Nc1nc2c(C#CC3CC3)c[nH]c(=O)c2c2cc(-c3cn[nH]c3)ccc12)C(C)(C)C

— the kinase profiling compilation of Christmann-Franck et al. (2016)
